{"source": "ChEMBL document CHEMBL1201862", "about": "“PubChem BioAssay data set” (2004)", "test_in_all_cases": "inhibition of tumour cell growth, NCI panel, 48 h", "key": {"MCF7": {"test_system": "MCF7"}, "IGROV-1": {"test_system": "IGROV-1"}, "CCRF-CEM": {"test_system": "CCRF-CEM"}, "CAKI-1": {"test_system": "CAKI-1"}, "MDA-MB-435": {"test_system": "MDA-MB-435"}, "UO-31": {"test_system": "UO-31"}, "COLO 205": {"test_system": "COLO 205"}, "MDA-MB-231": {"test_system": "MDA-MB-231"}, "HOP-92": {"test_system": "HOP-92"}, "NCI-H522": {"test_system": "NCI-H522"}, "HL-60": {"test_system": "HL-60"}, "HT-29": {"test_system": "HT-29"}, "DU-145": {"test_system": "DU-145"}, "HOP-62": {"test_system": "HOP-62"}, "NCI-H460": {"test_system": "NCI-H460"}, "PC-3": {"test_system": "PC-3"}, "OVCAR-5": {"test_system": "OVCAR-5"}, "SW-620": {"test_system": "SW-620"}, "SF-539": {"test_system": "SF-539"}}, "note": "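Where inhibition never reached the appropriate level, the endpoint shown equals the highest concentration tested. Otherwise, values were interpolated linearly from a five-concentration, 48-hour dose response in 96-well plates. Abbreviation: GI50, concentration required for 50% inhibition of growth.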 Calls of active or inactive are those of the source. No stated cut-off is given here; in the data, active = GI50 up to about 1.1 µM and inactive = higher."}
{"compound": "NC(=O)c1nnsc1NC=O", "values": [{"measurement": "GI50", "setting": "MCF7", "value": "> 100 µM (inactive)"}, {"measurement": "GI50", "setting": "IGROV-1", "value": "> 100 µM (inactive)"}, {"measurement": "GI50", "setting": "CCRF-CEM", "value": "> 100 µM (inactive)"}, {"measurement": "GI50", "setting": "CAKI-1", "value": "> 100 µM (inactive)"}, {"measurement": "GI50", "setting": "MDA-MB-435", "value": "> 100 µM (inactive)"}, {"measurement": "GI50", "setting": "UO-31", "value": "> 100 µM (inactive)"}, {"measurement": "GI50", "setting": "COLO 205", "value": "> 100 µM (inactive)"}, {"measurement": "GI50", "setting": "MDA-MB-231", "value": "> 100 µM (inactive)"}, {"measurement": "GI50", "setting": "HOP-92", "value": "75 µM (inactive)"}, {"measurement": "GI50", "setting": "NCI-H522", "value": "> 100 µM (inactive)"}, {"measurement": "GI50", "setting": "HL-60", "value": "> 100 µM (inactive)"}, {"measurement": "GI50", "setting": "HT-29", "value": "> 100 µM (inactive)"}, {"measurement": "GI50", "setting": "DU-145", "value": "> 100 µM (inactive)"}, {"measurement": "GI50", "setting": "HOP-62", "value": "> 100 µM (inactive)"}, {"measurement": "GI50", "setting": "NCI-H460", "value": "> 100 µM (inactive)"}, {"measurement": "GI50", "setting": "PC-3", "value": "> 100 µM (inactive)"}, {"measurement": "GI50", "setting": "OVCAR-5", "value": "> 100 µM (inactive)"}, {"measurement": "GI50", "setting": "SW-620", "value": "> 100 µM (inactive)"}]}
{"compound": "CCOC(=O)N1CCC2(CC1)C[C@@](C(C)=O)(c1ccccc1)C(C)O2", "note": "(some centres undefined)", "values": [{"measurement": "GI50", "setting": "MCF7", "value": "> 100 µM (inactive)"}, {"measurement": "GI50", "setting": "IGROV-1", "value": "> 100 µM (inactive)"}, {"measurement": "GI50", "setting": "CAKI-1", "value": "> 100 µM (inactive)"}, {"measurement": "GI50", "setting": "MDA-MB-435", "value": "> 100 µM (inactive)"}, {"measurement": "GI50", "setting": "UO-31", "value": "> 100 µM (inactive)"}, {"measurement": "GI50", "setting": "COLO 205", "value": "> 100 µM (inactive)"}, {"measurement": "GI50", "setting": "MDA-MB-231", "value": "> 100 µM (inactive)"}, {"measurement": "GI50", "setting": "HOP-92", "value": "61.1 µM (inactive)"}, {"measurement": "GI50", "setting": "NCI-H522", "value": "> 100 µM (inactive)"}, {"measurement": "GI50", "setting": "HL-60", "value": "> 100 µM (inactive)"}, {"measurement": "GI50", "setting": "HT-29", "value": "> 100 µM (inactive)"}, {"measurement": "GI50", "setting": "DU-145", "value": "> 100 µM (inactive)"}, {"measurement": "GI50", "setting": "HOP-62", "value": "> 100 µM (inactive)"}, {"measurement": "GI50", "setting": "NCI-H460", "value": "> 100 µM (inactive)"}, {"measurement": "GI50", "setting": "PC-3", "value": "> 100 µM (inactive)"}, {"measurement": "GI50", "setting": "OVCAR-5", "value": "> 100 µM (inactive)"}, {"measurement": "GI50", "setting": "SW-620", "value": "> 100 µM (inactive)"}, {"measurement": "GI50", "setting": "SF-539", "value": "> 100 µM (inactive)"}]}
{"compound": "CCOC(=O)/C(=C\\NC(=S)Nc1ccc(OCC)cc1)C(=O)c1ccccc1", "values": [{"measurement": "GI50", "setting": "MCF7", "value": "> 100 µM (inactive)"}, {"measurement": "GI50", "setting": "IGROV-1", "value": "> 100 µM (inactive)"}, {"measurement": "GI50", "setting": "CCRF-CEM", "value": "> 100 µM (inactive)"}, {"measurement": "GI50", "setting": "CAKI-1", "value": "> 100 µM (inactive)"}, {"measurement": "GI50", "setting": "MDA-MB-435", "value": "> 100 µM (inactive)"}, {"measurement": "GI50", "setting": "COLO 205", "value": "> 100 µM (inactive)"}, {"measurement": "GI50", "setting": "MDA-MB-231", "value": "> 100 µM (inactive)"}, {"measurement": "GI50", "setting": "HOP-92", "value": "8.26 µM (inactive)"}, {"measurement": "GI50", "setting": "NCI-H522", "value": "> 100 µM (inactive)"}, {"measurement": "GI50", "setting": "HL-60", "value": "> 100 µM (inactive)"}, {"measurement": "GI50", "setting": "HT-29", "value": "> 100 µM (inactive)"}, {"measurement": "GI50", "setting": "DU-145", "value": "> 100 µM (inactive)"}, {"measurement": "GI50", "setting": "HOP-62", "value": "> 100 µM (inactive)"}, {"measurement": "GI50", "setting": "NCI-H460", "value": "> 100 µM (inactive)"}, {"measurement": "GI50", "setting": "PC-3", "value": "> 100 µM (inactive)"}, {"measurement": "GI50", "setting": "OVCAR-5", "value": "> 100 µM (inactive)"}, {"measurement": "GI50", "setting": "SW-620", "value": "> 100 µM (inactive)"}, {"measurement": "GI50", "setting": "SF-539", "value": "> 100 µM (inactive)"}]}
{"compound": "C=C(C)C#CC(O)(C(=O)OC1CCN(C)CC1)C(C)C", "note": "(centres undefined)", "values": [{"measurement": "GI50", "setting": "MCF7", "value": "> 100 µM (inactive)"}, {"measurement": "GI50", "setting": "IGROV-1", "value": "> 100 µM (inactive)"}, {"measurement": "GI50", "setting": "CCRF-CEM", "value": "> 100 µM (inactive)"}, {"measurement": "GI50", "setting": "CAKI-1", "value": "> 100 µM (inactive)"}, {"measurement": "GI50", "setting": "MDA-MB-435", "value": "> 100 µM (inactive)"}, {"measurement": "GI50", "setting": "UO-31", "value": "> 100 µM (inactive)"}, {"measurement": "GI50", "setting": "COLO 205", "value": "> 100 µM (inactive)"}, {"measurement": "GI50", "setting": "MDA-MB-231", "value": "> 100 µM (inactive)"}, {"measurement": "GI50", "setting": "NCI-H522", "value": "> 100 µM (inactive)"}, {"measurement": "GI50", "setting": "HL-60", "value": "> 100 µM (inactive)"}, {"measurement": "GI50", "setting": "HT-29", "value": "> 100 µM (inactive)"}, {"measurement": "GI50", "setting": "DU-145", "value": "> 100 µM (inactive)"}, {"measurement": "GI50", "setting": "HOP-62", "value": "> 100 µM (inactive)"}, {"measurement": "GI50", "setting": "PC-3", "value": "> 100 µM (inactive)"}, {"measurement": "GI50", "setting": "OVCAR-5", "value": "> 100 µM (inactive)"}, {"measurement": "GI50", "setting": "SW-620", "value": "> 100 µM (inactive)"}, {"measurement": "GI50", "setting": "SF-539", "value": "> 100 µM (inactive)"}]}
{"compound": "O=C(/C=C/c1ccc2ccccc2c1)NCc1ccc(C(=O)NCCc2ccccc2)cc1", "values": [{"measurement": "GI50", "setting": "MCF7", "value": "> 100 µM (inactive)"}, {"measurement": "GI50", "setting": "CCRF-CEM", "value": "> 100 µM (inactive)"}, {"measurement": "GI50", "setting": "CAKI-1", "value": "> 100 µM (inactive)"}, {"measurement": "GI50", "setting": "MDA-MB-435", "value": "> 100 µM (inactive)"}, {"measurement": "GI50", "setting": "UO-31", "value": "> 100 µM (inactive)"}, {"measurement": "GI50", "setting": "COLO 205", "value": "> 100 µM (inactive)"}, {"measurement": "GI50", "setting": "MDA-MB-231", "value": "> 100 µM (inactive)"}, {"measurement": "GI50", "setting": "HOP-92", "value": "> 100 µM (inactive)"}, {"measurement": "GI50", "setting": "HL-60", "value": "43.7 µM (inactive)"}, {"measurement": "GI50", "setting": "DU-145", "value": "> 100 µM (inactive)"}, {"measurement": "GI50", "setting": "HOP-62", "value": "> 100 µM (inactive)"}, {"measurement": "GI50", "setting": "NCI-H460", "value": "> 100 µM (inactive)"}, {"measurement": "GI50", "setting": "PC-3", "value": "> 100 µM (inactive)"}, {"measurement": "GI50", "setting": "OVCAR-5", "value": "> 100 µM (inactive)"}, {"measurement": "GI50", "setting": "SW-620", "value": "> 100 µM (inactive)"}]}
{"compound": "CN(C)c1n/c(=N/Cc2ccccn2)ss1", "values": [{"measurement": "GI50", "setting": "MCF7", "value": "0.409 µM (active)"}, {"measurement": "GI50", "setting": "IGROV-1", "value": "> 10 µM (inactive)"}, {"measurement": "GI50", "setting": "CCRF-CEM", "value": "1.24 µM (inactive)"}, {"measurement": "GI50", "setting": "CAKI-1", "value": "> 7.94 µM (inactive)"}, {"measurement": "GI50", "setting": "MDA-MB-435", "value": "> 10 µM (inactive)"}, {"measurement": "GI50", "setting": "UO-31", "value": "> 10 µM (inactive)"}, {"measurement": "GI50", "setting": "COLO 205", "value": "> 10 µM (inactive)"}, {"measurement": "GI50", "setting": "MDA-MB-231", "value": "> 10 µM (inactive)"}, {"measurement": "GI50", "setting": "HOP-92", "value": "> 10 µM (inactive)"}, {"measurement": "GI50", "setting": "HL-60", "value": "2.18 µM (inactive)"}, {"measurement": "GI50", "setting": "HT-29", "value": "> 10 µM (inactive)"}, {"measurement": "GI50", "setting": "DU-145", "value": "> 10 µM (inactive)"}, {"measurement": "GI50", "setting": "HOP-62", "value": "> 10 µM (inactive)"}, {"measurement": "GI50", "setting": "NCI-H460", "value": "> 10 µM (inactive)"}, {"measurement": "GI50", "setting": "PC-3", "value": "> 10 µM (inactive)"}, {"measurement": "GI50", "setting": "OVCAR-5", "value": "7.38 µM (inactive)"}, {"measurement": "GI50", "setting": "SW-620", "value": "> 6.4 µM (inactive)"}, {"measurement": "GI50", "setting": "SF-539", "value": "> 10 µM (inactive)"}]}
